Patent US20260055060A1, “USE OF (ISOINDOLIN-2-YL)(4-HYDROXY-3-(ISOINDOLINE-2-CARBONYL)PHENYL)METHANONES IN THE TREATMENT OF TUMOR NECROSIS FACTOR RECEPTOR-ASSOCIATED PROTEIN 1 DYSFUNCTION” (UNIVERSITY OF NOTRE DAME DU LAC, priority 2022, published 2026)
“Also recorded” adds a separate entry of the source. Values belong to the compound of their own block, whether it stands above or below them.

Experiments:
[1] = molecular target: T1, Hsp90β (Homo sapiens, UniProt P08238); test: Fluorescence polarization assay (FITC-GDA tracer displacement), Hsp90β; assay type: binding; settings: Table 1; concentration at which tracer 50% displaced, reported as Kd
T1 construct: 50 μL of assay buffer containing 10 nM of Hsp90, Hsp90a, Grp94, or Trap1 were added to each well

[2] = system: TRAP1-dependent client proteins NDUFS1, glutaminase-1, and Sirt3; test: Western blot for degradation of TRAP1 client proteins; assay type: cell-based; settings: for degradation of TRAP1-dependent client proteins NDUFS1, glutaminase-1, Sirt3: HeLa and 22Rv1 cells, 6 h treatment
[3] = system: cytosolic Hsp90 clients, Akt and Cdk4, Hsp70; test: Western blot for cytosolic Hsp90 clients and Hsp70 induction; assay type: cell-based; settings: HeLa and 22Rv1 cells, 6 h treatment
[4] = system: HeLa cells; test: Seahorse XFe oxygen consumption rate, HeLa; assay type: cell-based; settings: 6 h treatment, significant at 25 μM and 50 μM
[5] = system: 22RV1 cells; test: Seahorse XFe oxygen consumption rate, 22Rv1; assay type: cell-based; settings: 6 h treatment, significant at 25 μM and 50 μM
[6] = system: HeLa cells; test: TMRM staining for mitochondrial membrane potential; assay type: cell-based; settings: 6 h treatment, 25 μM and 50 μM
[7] = system: HeLa cells; test: Seahorse mitochondrial function (oligomycin, FCCP, rot/AA injections), HeLa; assay type: cell-based; settings: 6 hr pretreatment
[8] = system: 22RV1 cells; test: Seahorse mitochondrial function (oligomycin, FCCP, rot/AA injections), 22Rv1; assay type: cell-based; settings: 6 hr pretreatment
[9] = system: HeLa cells; test: Cellular ATP production rate (glycolysis vs mitochondrial); assay type: cell-based; settings: oligomycin and rot/AA injections
[10] = system: HeLa cells; test: Mitochondrial fuel oxidation with BPTES, UK5099 and etomoxir; assay type: cell-based
[11] = system: TRAP1-dependent client proteins NDUFS1, glutaminase-1, and Sirt3; settings: literature report; cited from earlier work

T1 sequence (P08238 whole entry): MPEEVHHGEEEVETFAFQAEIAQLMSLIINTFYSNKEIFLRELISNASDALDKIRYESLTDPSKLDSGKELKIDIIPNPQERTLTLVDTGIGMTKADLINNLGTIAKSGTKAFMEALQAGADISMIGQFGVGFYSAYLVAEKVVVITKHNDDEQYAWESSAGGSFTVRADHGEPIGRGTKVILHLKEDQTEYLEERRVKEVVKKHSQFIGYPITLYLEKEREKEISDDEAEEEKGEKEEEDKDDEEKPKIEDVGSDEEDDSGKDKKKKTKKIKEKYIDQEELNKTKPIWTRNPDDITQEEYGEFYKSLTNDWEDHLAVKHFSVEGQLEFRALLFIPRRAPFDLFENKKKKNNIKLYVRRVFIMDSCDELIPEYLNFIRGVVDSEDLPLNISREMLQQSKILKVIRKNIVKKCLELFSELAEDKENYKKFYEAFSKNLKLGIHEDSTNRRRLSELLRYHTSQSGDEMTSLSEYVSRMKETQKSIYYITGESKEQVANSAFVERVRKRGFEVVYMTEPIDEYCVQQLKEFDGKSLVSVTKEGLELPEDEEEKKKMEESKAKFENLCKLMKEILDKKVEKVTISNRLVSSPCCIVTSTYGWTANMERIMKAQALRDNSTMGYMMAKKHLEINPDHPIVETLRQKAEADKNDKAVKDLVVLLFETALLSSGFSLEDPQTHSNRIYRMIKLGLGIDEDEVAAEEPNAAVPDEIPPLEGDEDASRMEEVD

- Kd [1]: 1000 ± 50 nM
Compound: O=C(c1cc(C(=O)N2Cc3ccccc3C2)c(O)cc1O)N1Cc2ccccc2C1 [Compound 4]

Compound: O=C(c1ccc(O)c(C(=O)N2Cc3ccc(OCCC[P+](c4ccccc4)(c4ccccc4)c4ccccc4)cc3C2)c1)N1Cc2cccc(F)c2C1 [Compound 35, (3-((2-(5-(4-Fluoroisoindoline-2-carbonyl)-2-hydroxybenzoyl)isoindolin-5-yl)oxy)propyl)triphenylphosphonium hexafluorophosphate(V)]
- degradation of TRAP1-dependent client proteins NDUFS1, glutaminase-1, Sirt3 [2]: dose-dependent and selective degradation
- expression of TRAP1 clients NDUFS1, glutaminase-1, Sirt3 ([2]; HeLa cells, 2 hr treatment, up to 50 μM): dose-dependently decreased
- degradation of cytosolic Hsp90 clients Akt and Cdk4, induction of Hsp70 [3]: without inducing the degradation
- oxygen consumption rate / OXPHOS [4]: statistically significant reduction of oxygen consumption; also recorded: significant dose-dependent decrease in OXPHOS; also recorded: inhibit OXPHOS
- oxygen consumption rate / OXPHOS [5]: significant dose-dependent decrease in OXPHOS; also recorded: statistically significant reduction of oxygen consumption; also recorded: inhibit OXPHOS
- TMRM fluorescence / mitochondrial membrane potential [6]: marked decrease in TMRM fluorescence; also recorded: disrupt the mitochondrial membrane potential
- proton leak, maximal respiration, non-mitochondrial O2 consumption, spare respiratory capacity [7]: decreased
- proton leak, maximal respiration, non-mitochondrial O2 consumption, spare respiratory capacity [8]: decreased
- cellular ATP production via oxidative phosphorylation or glycolysis [9]: alter cellular metabolism towards glycolysis
- mitochondrial glutamine, fatty acid, and glucose oxidation ([10]; 6 hr treatment, 32 at 50 μM): reduced OCR (oxygen consumption rate) and prevented measurement
- response of basal OCR to BPTES, UK5099, etomoxir ([10]; HeLa cells, 2 hr incubation, 50 μM): unresponsive to BPTES, UK5099, and etomoxir

Compound: COc1cccc2c1CN(C(=O)c1ccc(O)c(C(=O)N3Cc4ccc(OCCC[P+](c5ccccc5)(c5ccccc5)c5ccccc5)cc4C3)c1)C2 [Compound 36, (3-((2-(2-Hydroxy-5-(4-methoxyisoindoline-2-carbonyl)benzoyl)isoindolin-5-yl)oxy)propyl)triphenylphosphonium hexafluorophosphate(V)]
- degradation of TRAP1-dependent client proteins NDUFS1, glutaminase-1, Sirt3 [2]: dose-dependent and selective degradation
- degradation of cytosolic Hsp90 clients Akt and Cdk4, induction of Hsp70 [3]: without inducing the degradation
- oxygen consumption rate / OXPHOS [4]: statistically significant reduction of oxygen consumption; also recorded: significant dose-dependent decrease in OXPHOS; also recorded: inhibit OXPHOS
- oxygen consumption rate / OXPHOS [5]: significant dose-dependent decrease in OXPHOS; also recorded: statistically significant reduction of oxygen consumption; also recorded: inhibit OXPHOS
- TMRM fluorescence / mitochondrial membrane potential [6]: marked decrease in TMRM fluorescence; also recorded: disrupt the mitochondrial membrane potential
- proton leak, maximal respiration, non-mitochondrial O2 consumption, spare respiratory capacity [7]: decreased
- proton leak, maximal respiration, non-mitochondrial O2 consumption, spare respiratory capacity [8]: decreased
- cellular ATP production via oxidative phosphorylation or glycolysis [9]: alter cellular metabolism towards glycolysis

Compound: COC1=C(OC)C(=O)C(CCCCCCCCCC[P+](c2ccccc2)(c2ccccc2)c2ccccc2)=C(C)C1=O [MitoQ, reference compound]
- TMRM fluorescence / mitochondrial membrane potential [6]: marked decrease in TMRM fluorescence
- proton leak, maximal respiration, non-mitochondrial O2 consumption, spare respiratory capacity [7]: decreased
- proton leak, maximal respiration, non-mitochondrial O2 consumption, spare respiratory capacity [8]: decreased
- degradation of TRAP1 client proteins (reported by Yoon, N. G. et al.) [11]: induce the degradation of these clients

Compound: gamitrinib [reference compound]
- degradation of cytosolic Hsp90 clients Akt and Cdk4, induction of Hsp70 [3]: pan-Hsp90 inhibition
- TMRM fluorescence / mitochondrial membrane potential [6]: marked decrease in TMRM fluorescence
- proton leak, maximal respiration, non-mitochondrial O2 consumption, spare respiratory capacity [7]: decreased
- proton leak, maximal respiration, non-mitochondrial O2 consumption, spare respiratory capacity [8]: decreased
